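Following 48 hours of exposure in 96-well plates, responses at five concentrations were used to interpolate endpoints linearly. At the GI50, growth is halved. TGI marks complete inhibition of growth.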
How the values were obtained:
Assay in all cases: growth of human tumour cells (NCI), 48 h
EKVX NSCLC = system: EKVX NSCLC
PC-3 prostate = system: PC-3 prostate
RXF 393 renal = system: RXF 393 renal
NCI/ADR-RES ovarian = system: NCI/ADR-RES ovarian
OVCAR-4 ovarian = system: OVCAR-4 ovarian
OVCAR-5 ovarian = system: OVCAR-5 ovarian
MALME-3M melanoma = system: MALME-3M melanoma
IGROV1 ovarian = system: IGROV1 ovarian
786-0 renal = system: 786-0 renal
SNB-19 CNS = system: SNB-19 CNS
SR leukemia = system: SR leukemia
SK-MEL-28 melanoma = system: SK-MEL-28 melanoma
T-47D breast = system: T-47D breast
A549 NSCLC = system: A549 NSCLC
SK-OV-3 ovarian = system: SK-OV-3 ovarian
LOX IMVI melanoma = system: LOX IMVI melanoma
HCT-15 colon = system: HCT-15 colon
SK-MEL-5 melanoma = system: SK-MEL-5 melanoma
SF-295 CNS = system: SF-295 CNS
SK-MEL-2 melanoma = system: SK-MEL-2 melanoma
BT-549 breast = system: BT-549 breast
COLO 205 colon = system: COLO 205 colon
SW-620 colon = system: SW-620 colon
MDA-MB-231 breast = system: MDA-MB-231 breast
NCI-H23 lung = system: NCI-H23 lung
RPMI-8226 leukemia = system: RPMI-8226 leukemia
SF-539 CNS = system: SF-539 CNS
UACC-257 melanoma = system: UACC-257 melanoma
HT29 colon = system: HT29 colon
KM12 colon = system: KM12 colon
OVCAR-8 ovarian = system: OVCAR-8 ovarian
HS 578T breast = system: HS 578T breast
UACC-62 melanoma = system: UACC-62 melanoma
SNB-75 CNS = system: SNB-75 CNS
HOP-62 NSCLC = system: HOP-62 NSCLC
HCT-116 colon = system: HCT-116 colon
DU-145 prostate = system: DU-145 prostate
K-562 leukemia = system: K-562 leukemia
SN12C renal = system: SN12C renal
TK-10 renal = system: TK-10 renal
NCI-H460 lung = system: NCI-H460 lung
MCF7 breast = system: MCF7 breast
HCC-2998 colon = system: HCC-2998 colon
NCI-H522 lung = system: NCI-H522 lung
MOLT-4 leukemia = system: MOLT-4 leukemia
SF-268 CNS = system: SF-268 CNS
CCRF-CEM leukemia = system: CCRF-CEM leukemia
OVCAR-3 ovarian = system: OVCAR-3 ovarian
ACHN renal = system: ACHN renal
MDA-MB-435 = system: MDA-MB-435
UO-31 renal = system: UO-31 renal
NCI-H226 lung = system: NCI-H226 lung
U251 CNS = system: U251 CNS
CAKI-1 renal = system: CAKI-1 renal
A498 renal = system: A498 renal
HOP-92 NSCLC = system: HOP-92 NSCLC
M14 melanoma = system: M14 melanoma

## CCOC(=O)c1ccc(Nc2sc(C(=O)c3cccc([N+](=O)[O-])c3)c(N)c2C#N)cc1
EKVX NSCLC
  GI50: 0.469 µM
  TGI: > 75.8 µM
PC-3 prostate
  GI50: 0.179 µM
  TGI: > 32.1 µM
RXF 393 renal
  GI50: 0.167 µM
  TGI: 24.8 µM
NCI/ADR-RES ovarian
  GI50: 0.0521 µM
  TGI: 25.7 µM
OVCAR-4 ovarian
  GI50: 0.612 µM
  TGI: 57.1 µM
OVCAR-5 ovarian
  GI50: 2.25 µM
  TGI: 29.6 µM
MALME-3M melanoma
  GI50: 0.0754 µM
  TGI: 23 µM
IGROV1 ovarian
  GI50: 0.0244 µM
  TGI: 26 µM
786-0 renal
  GI50: 0.122 µM
  TGI: 15.3 µM
SNB-19 CNS
  GI50: 0.338 µM
  TGI: 18.6 µM
SR leukemia
  GI50: 0.034 µM
  TGI: 4.71 µM
SK-MEL-28 melanoma
  GI50: 8.32 µM
  TGI: > 59.9 µM
T-47D breast
  GI50: 0.141 µM
  TGI: > 68.5 µM
A549 NSCLC
  GI50: 0.23 µM
SK-OV-3 ovarian
  GI50: 0.181 µM
  TGI: 18.6 µM
LOX IMVI melanoma
  GI50: 0.148 µM
  TGI: 15.4 µM
HCT-15 colon
  GI50: 0.102 µM
  TGI: > 100 µM
SK-MEL-5 melanoma
  GI50: 0.156 µM
  TGI: 12.2 µM
SF-295 CNS
  GI50: 0.0228 µM
  TGI: 0.102 µM
SK-MEL-2 melanoma
  GI50: 0.403 µM
  TGI: 24.4 µM
BT-549 breast
  GI50: 0.0568 µM
  TGI: 39.4 µM
COLO 205 colon
  GI50: 0.156 µM
  TGI: 1.59 µM
SW-620 colon
  GI50: 0.0591 µM
  TGI: 6.63 µM
MDA-MB-231 breast
  GI50: 1.1 µM
  TGI: 9.63 µM
NCI-H23 lung
  GI50: 0.425 µM
  TGI: 22.6 µM
RPMI-8226 leukemia
  GI50: 0.333 µM
  TGI: 20.3 µM
SF-539 CNS
  GI50: 0.0885 µM
  TGI: 13.2 µM
UACC-257 melanoma
  GI50: 0.301 µM
  TGI: > 31.6 µM
HT29 colon
  GI50: 0.0398 µM
  TGI: 3.12 µM
KM12 colon
  GI50: 0.0678 µM
  TGI: 6.43 µM
OVCAR-8 ovarian
  GI50: 1.4 µM
  TGI: 10.4 µM
HS 578T breast
  GI50: 0.129 µM
  TGI: > 39.1 µM
UACC-62 melanoma
  GI50: 0.0789 µM
  TGI: 23.4 µM
SNB-75 CNS
  GI50: 0.116 µM
  TGI: 0.65 µM
HOP-62 NSCLC
  GI50: 0.108 µM
  TGI: 6.39 µM
HCT-116 colon
  GI50: 0.0505 µM
  TGI: 4.17 µM
DU-145 prostate
  GI50: 0.184 µM
  TGI: 21.1 µM
K-562 leukemia
  GI50: 0.0375 µM
  TGI: 6.53 µM
SN12C renal
  GI50: 0.497 µM
  TGI: > 46.7 µM
TK-10 renal
  GI50: 0.192 µM
  TGI: 17.3 µM
NCI-H460 lung
  GI50: 0.0519 µM
  TGI: 4.14 µM
MCF7 breast
  GI50: 0.102 µM
  TGI: 13.2 µM
HCC-2998 colon
  GI50: 2.78 µM
  TGI: > 100 µM
NCI-H522 lung
  GI50: 0.0277 µM
  TGI: 0.852 µM
MOLT-4 leukemia
  GI50: 0.203 µM
  TGI: 6.59 µM
SF-268 CNS
  GI50: 0.198 µM
  TGI: 21 µM
CCRF-CEM leukemia
  GI50: 0.067 µM
  TGI: 8.34 µM
OVCAR-3 ovarian
  GI50: 0.0218 µM
  TGI: 0.0617 µM
ACHN renal
  GI50: 0.0976 µM
  TGI: > 44.2 µM
MDA-MB-435
  GI50: 0.0309 µM
  TGI: 0.264 µM
UO-31 renal
  GI50: 0.0543 µM
  TGI: 20 µM
NCI-H226 lung
  GI50: 4.67 µM
  TGI: 99.5 µM
U251 CNS
  GI50: 0.0607 µM
  TGI: 3.86 µM
CAKI-1 renal
  GI50: 0.044 µM
  TGI: 0.253 µM
A498 renal
  GI50: 0.0827 µM
  TGI: 5.04 µM
HOP-92 NSCLC
  GI50: 0.109 µM
  TGI: 28.1 µM
M14 melanoma
  GI50: 0.213 µM
  TGI: 23.9 µM

## N#CSCc1c(Cl)cccc1Cl
EKVX NSCLC
  GI50: 3.94 µM
  TGI: > 27.4 µM
PC-3 prostate
  GI50: 8.73 µM
  TGI: > 100 µM
RXF 393 renal
  GI50: 2.54 µM
  TGI: 7.24 µM
NCI/ADR-RES ovarian
  GI50: 6.25 µM
  TGI: > 100 µM
OVCAR-4 ovarian
  GI50: 5.82 µM
  TGI: > 100 µM
OVCAR-5 ovarian
  GI50: 7.41 µM
  TGI: > 100 µM
MALME-3M melanoma
  GI50: 8.71 µM
  TGI: > 100 µM
IGROV1 ovarian
  GI50: 2.69 µM
  TGI: 7.2 µM
786-0 renal
  GI50: 5.57 µM
  TGI: > 100 µM
SNB-19 CNS
  GI50: 32.3 µM
  TGI: > 100 µM
SR leukemia
  TGI: > 24 µM
SK-MEL-28 melanoma
  GI50: 9.16 µM
  TGI: > 100 µM
T-47D breast
  GI50: 13.3 µM
  TGI: > 96.1 µM
A549 NSCLC
  GI50: 3.31 µM
  TGI: > 100 µM
SK-OV-3 ovarian
  GI50: 34 µM
  TGI: > 100 µM
LOX IMVI melanoma
  GI50: 3.55 µM
  TGI: > 100 µM
HCT-15 colon
  GI50: 2.96 µM
  TGI: > 100 µM
SK-MEL-5 melanoma
  GI50: 4.5 µM
  TGI: 21.2 µM
SF-295 CNS
  GI50: 16.2 µM
  TGI: > 91.4 µM
SK-MEL-2 melanoma
  GI50: 4.02 µM
  TGI: > 100 µM
BT-549 breast
  GI50: 2.31 µM
  TGI: 7.48 µM
COLO 205 colon
  GI50: 2.34 µM
  TGI: 4.97 µM
SW-620 colon
  GI50: 0.76 µM
  TGI: > 46.3 µM
MDA-MB-231 breast
  GI50: 3.43 µM
  TGI: > 63.5 µM
NCI-H23 lung
  GI50: 5.41 µM
  TGI: > 100 µM
RPMI-8226 leukemia
  GI50: < 0.0506 µM
  TGI: 1.33 µM
SF-539 CNS
  GI50: 3.45 µM
  TGI: > 35.5 µM
UACC-257 melanoma
  GI50: 10.9 µM
  TGI: > 81.3 µM
HT29 colon
  GI50: 3.75 µM
  TGI: > 100 µM
OVCAR-8 ovarian
  GI50: 4.8 µM
  TGI: > 100 µM
HS 578T breast
  GI50: 3.04 µM
  TGI: 8.26 µM
UACC-62 melanoma
  GI50: 5.18 µM
  TGI: > 67.4 µM
SNB-75 CNS
  GI50: 20.2 µM
  TGI: > 100 µM
HOP-62 NSCLC
  GI50: 36.6 µM
  TGI: > 100 µM
HCT-116 colon
  GI50: 2.92 µM
  TGI: > 39.3 µM
DU-145 prostate
  GI50: 2.74 µM
  TGI: 5.71 µM
K-562 leukemia
  GI50: 0.359 µM
  TGI: 16.3 µM
SN12C renal
  GI50: 4.5 µM
  TGI: > 100 µM
TK-10 renal
  GI50: 4.51 µM
  TGI: > 29.2 µM
NCI-H460 lung
  GI50: 4.29 µM
  TGI: > 53.4 µM
MCF7 breast
  GI50: 3.27 µM
  TGI: > 100 µM
HCC-2998 colon
  GI50: 4.19 µM
  TGI: 45.2 µM
NCI-H522 lung
  GI50: 2.07 µM
  TGI: 6.33 µM
SF-268 CNS
  GI50: 4.9 µM
  TGI: > 65.5 µM
CCRF-CEM leukemia
  GI50: 0.323 µM
  TGI: > 43.8 µM
OVCAR-3 ovarian
  GI50: 2.39 µM
  TGI: 5.18 µM
ACHN renal
  GI50: 5.14 µM
  TGI: > 100 µM
MDA-MB-435
  GI50: 2.11 µM
  TGI: 5.63 µM
UO-31 renal
  GI50: 4.41 µM
  TGI: 27.6 µM
NCI-H226 lung
  GI50: 12.6 µM
  TGI: > 100 µM
U251 CNS
  GI50: 3.83 µM
  TGI: > 100 µM
CAKI-1 renal
  GI50: 0.309 µM
  TGI: > 20.2 µM
A498 renal
  GI50: 4.76 µM
  TGI: 19.6 µM
HOP-92 NSCLC
  GI50: 1.18 µM
  TGI: > 30 µM
M14 melanoma
  GI50: 3.05 µM
  TGI: > 100 µM

From PubChem BioAssay (NCI)
